# Laboratory results: patent publication US8440633B2, “Anthelmintic combination” (AH USA 42 LLC, priority 2007, dated 2013)
# How the values were obtained:
# Assay type in all cases: in vivo
# [1] = tested on: Teladorsagia circumcincta; test: Total worm count, resistant strains in sheep (Example 2); conditions: for % efficacy (arithmetic mean): doses as the 4th table, Day 15, NEG = negative efficacy, mean count higher than control
# Protocol: (§1) Sheep were artificially infected with L3 larvae of Teladorsagia (Ostertagia) circumcincta and Trichostrongylus colubriformis and efficacy was measured by total worm counts in the treatment group compared to the control group following administration of treatment.
# (§2) All study animals were necropsied on Day 15 after treatment. Abomasa and small intestines were collected for worm recovery and total worm count estimations.
# [2] = tested on: Teladorsagia trifurcata; test: as above; conditions: for % efficacy (arithmetic mean): doses as the 4th table, Day 15, NEG = negative efficacy, mean count higher than control
# Protocol: as §1, §2
# [3] = tested on: Trichostrongylus colubriformis; test: as above; conditions: for % efficacy (arithmetic mean): doses as the 4th table, Day 15
# Protocol: as §1, §2
# [4] = tested on: Teladorsagia spp (total); test: Total worm count, resistant strains in sheep (Example 3); conditions: for % efficacy (arithmetic mean): doses as the 6th table, Day 15, NEG = negative efficacy
# Protocol: (§3) Sheep were artificially infected with infective L3 larvae in a mixed culture containing Haemonchus contortus, Teladorsagia spp and Trichostrongylus spp, and efficacy was measured by total worm counts in the treatment group compared to the control group following administration of treatment. The animals were treated as outlined below with the commercially available reference products included to confirm the resistance profile of the above parasites.
# as §2
# [5] = tested on: Trich. colubriformis; test: as above; conditions: for % efficacy (arithmetic mean): doses as the 6th table, Day 15
# Protocol: as §3, §2
# [6] = tested on: Haemonchus contortus; test: as above; conditions: for % efficacy (arithmetic mean): doses as the 6th table, Day 15
# Protocol: as §3, §2
# [7] = Example 2, resistant Teladorsagia circumcincta
# [8] = Example 2, Teladorsagia trifurcata
# [9] = Example 2, resistant Trichostrongylus colubriformis
# [10] = Example 3, resistant Teladorsagia spp (total)
# [11] = Example 3, resistant Trich. colubriformis
# [12] = Example 3, resistant Haemonchus contortus
# [13] = Example 2, resistant Teladorsagia circumcincta, per os once Day 0 (2-DOPH 2 + abamectin 0.2; albendazole 3.8; levamisole 8; ivermectin 0.2 mg/kg), necropsy Day 15
# [14] = Example 2, Teladorsagia trifurcata, per os once Day 0 (2-DOPH 2 + abamectin 0.2; albendazole 3.8; levamisole 8; ivermectin 0.2 mg/kg), necropsy Day 15
# [15] = Example 2, resistant Trichostrongylus colubriformis, per os once Day 0 (2-DOPH 2 + abamectin 0.2; albendazole 3.8; levamisole 8; ivermectin 0.2 mg/kg), necropsy Day 15
# [16] = Example 3, resistant Teladorsagia spp (total), per os once Day 0 (2-DOPH 2 + abamectin 0.2; albendazole 3.8; levamisole 8; ivermectin 0.2 mg/kg), necropsy Day 15
# [17] = Example 3, resistant Trich. colubriformis, per os once Day 0 (2-DOPH 2 + abamectin 0.2; albendazole 3.8; levamisole 8; ivermectin 0.2 mg/kg), necropsy Day 15
# [18] = Example 3, resistant Haemonchus contortus, per os once Day 0 (2-DOPH 2 + abamectin 0.2; albendazole 3.8; levamisole 8; ivermectin 0.2 mg/kg), necropsy Day 15
Molecule,"% efficacy (arithmetic mean) [1, 7]",Arithmetic Mean (total worm count) ([1]; in vivo),Prevalence (total worm count) ([1]; in vivo),Range (total worm count) ([1]; in vivo),"% efficacy (arithmetic mean) [2, 8]",Arithmetic Mean (total worm count) ([2]; in vivo),Prevalence (total worm count) ([2]; in vivo),Range (total worm count) ([2]; in vivo),"% efficacy (arithmetic mean) [3, 9]",Arithmetic Mean (total worm count) ([3]; in vivo),Prevalence (total worm count) ([3]; in vivo),Range (total worm count) ([3]; in vivo),"% efficacy (arithmetic mean) [4, 10]",Arithmetic Mean (total worm count) ([4]; in vivo),Prevalence (total worm count) ([4]; in vivo),Range (total worm count) ([4]; in vivo),"% efficacy (arithmetic mean) [5, 11]",Arithmetic Mean (total worm count) ([5]; in vivo),Prevalence (total worm count) ([5]; in vivo),"% efficacy (arithmetic mean) [6, 12]",also measured
CCCSc1ccc2nc(NC(=O)OC)[nH]c2c1 [Albendazole],NEG^,2184.4,10/10,80-3708,NEG^,281.6,7/10,0-712,56.44%,1812.0,10/10,1320-2660,58.16%,590.0,10/10,160-1200,25.00%,3828.0,10/10,80.57%,Range (total worm count) ([5]; in vivo): 2600-5160; Arithmetic Mean (total worm count) ([6]; in vivo): 164.0; Prevalence (total worm count) ([6]; in vivo): 8/10; Range (total worm count) ([6]; in vivo): 0-320
c1ccc([C@H]2CN3CCSC3=N2)cc1 [Levamisole],82.67%,,,,84.08%,,,,84.31%,,,,96.31%,,,,15.34%,,,99.76%,"Arithmetic Mean (total worm count) [1, 13]: 292.8; Prevalence (total worm count) [1, 13]: 7/9; Range (total worm count) [1, 13]: 0-1020; Arithmetic Mean (total worm count) [2, 14]: 36.7; Prevalence (total worm count) [2, 14]: 4/9; Range (total worm count) [2, 14]: 0-180; Arithmetic Mean (total worm count) [3, 15]: 652.6; Prevalence (total worm count) [3, 15]: 9/9; Range (total worm count) [3, 15]: 300-1500; Arithmetic Mean (total worm count) [4, 16]: 52.0; Prevalence (total worm count) [4, 16]: 8/10; Range (total worm count) [4, 16]: 0-160; Arithmetic Mean (total worm count) [5, 17]: 4320.7; Prevalence (total worm count) [5, 17]: 10/10; Range (total worm count) [5, 17]: 2120-5800; Arithmetic Mean (total worm count) [6, 18]: 2.0; Prevalence (total worm count) [6, 18]: 1/10; Range (total worm count) [6, 18]: 0-20"
Ivermectin,NEG^,2093.2,10/10,680-3600,15.49%,194.8,7/10,0-459,55.29%,1860.0,10/10,400-4060,NEG,1680.0,10/10,280-3800,11.63%,4510.0,10/10,47.63%,"% efficacy (arithmetic mean) ([1]; Example 2, resistant Teladorsagia circumcincta, listed as ivermectin): zero; Range (total worm count) ([5]; in vivo): 3140-5920; Arithmetic Mean (total worm count) ([6]; in vivo): 442.0; Prevalence (total worm count) ([6]; in vivo): 8/10; Range (total worm count) ([6]; in vivo): 0-940"
